Test results published in ChEMBL document CHEMBL4118166, “Design, synthesis and evaluation of potent and selective inhibitors of mono-(ADP-ribosyl)transferases PARP10 and PARP14” (Bioorg Med Chem Lett, 2018).
≈ marks a conversion by molar mass, not a printed value.

Experiments:
[1] = target: T1, Protein mono-ADP-ribosyltransferase PARP10 (Homo sapiens, UniProt Q53GL7); test: Inhibition of full length recombinant His6-tagged human PARP10 expressed in Escherichia coli BL21(DE3) preincubated for 15 mins followed by biotinylated NAD+ addition by chemiluminescence assay
T1 sequence (Q53GL7 whole entry): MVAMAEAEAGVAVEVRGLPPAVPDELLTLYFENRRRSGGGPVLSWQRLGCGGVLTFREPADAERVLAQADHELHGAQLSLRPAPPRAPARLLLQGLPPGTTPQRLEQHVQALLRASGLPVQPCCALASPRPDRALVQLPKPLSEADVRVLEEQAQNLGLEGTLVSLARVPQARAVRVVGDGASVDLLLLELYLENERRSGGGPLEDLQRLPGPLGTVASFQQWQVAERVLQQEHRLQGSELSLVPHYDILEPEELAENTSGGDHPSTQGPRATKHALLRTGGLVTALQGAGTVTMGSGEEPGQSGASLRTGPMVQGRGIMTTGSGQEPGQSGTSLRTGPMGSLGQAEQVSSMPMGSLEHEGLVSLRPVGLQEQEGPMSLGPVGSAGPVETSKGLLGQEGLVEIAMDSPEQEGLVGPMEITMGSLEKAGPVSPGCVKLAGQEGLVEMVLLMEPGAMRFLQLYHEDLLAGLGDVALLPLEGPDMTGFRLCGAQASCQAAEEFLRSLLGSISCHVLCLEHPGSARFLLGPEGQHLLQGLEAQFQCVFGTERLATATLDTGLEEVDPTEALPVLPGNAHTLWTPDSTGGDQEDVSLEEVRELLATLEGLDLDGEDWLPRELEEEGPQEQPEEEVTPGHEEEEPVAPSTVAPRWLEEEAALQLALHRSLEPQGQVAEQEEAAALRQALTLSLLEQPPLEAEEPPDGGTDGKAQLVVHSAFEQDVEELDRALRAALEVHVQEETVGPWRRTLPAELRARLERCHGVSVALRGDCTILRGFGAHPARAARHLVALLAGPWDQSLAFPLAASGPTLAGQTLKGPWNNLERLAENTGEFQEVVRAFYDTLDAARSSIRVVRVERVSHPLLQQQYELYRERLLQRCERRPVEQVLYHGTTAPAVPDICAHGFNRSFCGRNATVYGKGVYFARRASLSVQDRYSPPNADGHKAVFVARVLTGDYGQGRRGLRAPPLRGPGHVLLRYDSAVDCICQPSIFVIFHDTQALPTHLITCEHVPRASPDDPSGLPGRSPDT

[2] = Metabolic stability in mouse liver microsomes compound remaining level at 5 uM in absence of co-factors after 2 hrs by LC-MS/MS analysis; format: ADME, microsome; conditions: read-out: Stability
[3] = Metabolic stability in mouse liver microsomes assessed as compound remaining level at 5 uM after 2 hrs in presence of G-6-P, G-6-PDH, MgCl2 and NADP+ by LC-MS/MS analysis; format: ADME, microsome; conditions: read-out: Stability
[4] = Thermodynamic solubility of the compound in phosphate buffer at pH 7.4 after 24 hrs by HPLC/UV based shake flask method; format: physicochemical; conditions: read-out: Therm_solubility
[5] = target: T2, Protein mono-ADP-ribosyltransferase PARP15 (Homo sapiens, UniProt Q460N3); test: Inhibition of full length recombinant His6-tagged PARP15 catalytic domain (unknown origin) expressed in Escherichia coli BL21(DE3) by fluorescence based assay
T2 sequence (Q460N3 whole entry): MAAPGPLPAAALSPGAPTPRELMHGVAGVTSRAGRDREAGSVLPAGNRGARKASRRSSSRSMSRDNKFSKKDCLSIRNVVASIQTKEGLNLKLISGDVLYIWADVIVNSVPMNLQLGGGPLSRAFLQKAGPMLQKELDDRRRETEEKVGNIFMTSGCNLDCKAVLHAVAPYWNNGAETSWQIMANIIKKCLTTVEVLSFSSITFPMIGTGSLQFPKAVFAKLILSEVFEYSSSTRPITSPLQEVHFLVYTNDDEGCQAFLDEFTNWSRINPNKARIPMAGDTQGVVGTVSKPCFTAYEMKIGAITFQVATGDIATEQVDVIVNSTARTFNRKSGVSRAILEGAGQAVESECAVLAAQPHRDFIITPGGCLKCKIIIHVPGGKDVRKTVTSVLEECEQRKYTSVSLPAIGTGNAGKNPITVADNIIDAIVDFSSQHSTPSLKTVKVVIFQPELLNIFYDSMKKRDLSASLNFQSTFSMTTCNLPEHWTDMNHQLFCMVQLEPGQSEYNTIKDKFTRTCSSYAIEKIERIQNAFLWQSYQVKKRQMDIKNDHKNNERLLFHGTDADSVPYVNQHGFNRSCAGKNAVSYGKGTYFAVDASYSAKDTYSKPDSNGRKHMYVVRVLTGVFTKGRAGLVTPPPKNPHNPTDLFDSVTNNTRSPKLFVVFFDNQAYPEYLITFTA

[6] = target: Protein mono-ADP-ribosyltransferase PARP14 (Homo sapiens) (UniProt Q460N5); test: Inhibition of full length recombinant His6-tagged human PARP14 WWA/catalytic domain expressed in Escherichia coli BL21(DE3) at 5 uM preincubated for 15 mins followed by biotinylated NAD+ addition by chemiluminescence assay relative to control
Sequence of Protein mono-ADP-ribosyltransferase PARP14 (Homo sapiens) (Q460N5 whole entry, the tested form may be a part): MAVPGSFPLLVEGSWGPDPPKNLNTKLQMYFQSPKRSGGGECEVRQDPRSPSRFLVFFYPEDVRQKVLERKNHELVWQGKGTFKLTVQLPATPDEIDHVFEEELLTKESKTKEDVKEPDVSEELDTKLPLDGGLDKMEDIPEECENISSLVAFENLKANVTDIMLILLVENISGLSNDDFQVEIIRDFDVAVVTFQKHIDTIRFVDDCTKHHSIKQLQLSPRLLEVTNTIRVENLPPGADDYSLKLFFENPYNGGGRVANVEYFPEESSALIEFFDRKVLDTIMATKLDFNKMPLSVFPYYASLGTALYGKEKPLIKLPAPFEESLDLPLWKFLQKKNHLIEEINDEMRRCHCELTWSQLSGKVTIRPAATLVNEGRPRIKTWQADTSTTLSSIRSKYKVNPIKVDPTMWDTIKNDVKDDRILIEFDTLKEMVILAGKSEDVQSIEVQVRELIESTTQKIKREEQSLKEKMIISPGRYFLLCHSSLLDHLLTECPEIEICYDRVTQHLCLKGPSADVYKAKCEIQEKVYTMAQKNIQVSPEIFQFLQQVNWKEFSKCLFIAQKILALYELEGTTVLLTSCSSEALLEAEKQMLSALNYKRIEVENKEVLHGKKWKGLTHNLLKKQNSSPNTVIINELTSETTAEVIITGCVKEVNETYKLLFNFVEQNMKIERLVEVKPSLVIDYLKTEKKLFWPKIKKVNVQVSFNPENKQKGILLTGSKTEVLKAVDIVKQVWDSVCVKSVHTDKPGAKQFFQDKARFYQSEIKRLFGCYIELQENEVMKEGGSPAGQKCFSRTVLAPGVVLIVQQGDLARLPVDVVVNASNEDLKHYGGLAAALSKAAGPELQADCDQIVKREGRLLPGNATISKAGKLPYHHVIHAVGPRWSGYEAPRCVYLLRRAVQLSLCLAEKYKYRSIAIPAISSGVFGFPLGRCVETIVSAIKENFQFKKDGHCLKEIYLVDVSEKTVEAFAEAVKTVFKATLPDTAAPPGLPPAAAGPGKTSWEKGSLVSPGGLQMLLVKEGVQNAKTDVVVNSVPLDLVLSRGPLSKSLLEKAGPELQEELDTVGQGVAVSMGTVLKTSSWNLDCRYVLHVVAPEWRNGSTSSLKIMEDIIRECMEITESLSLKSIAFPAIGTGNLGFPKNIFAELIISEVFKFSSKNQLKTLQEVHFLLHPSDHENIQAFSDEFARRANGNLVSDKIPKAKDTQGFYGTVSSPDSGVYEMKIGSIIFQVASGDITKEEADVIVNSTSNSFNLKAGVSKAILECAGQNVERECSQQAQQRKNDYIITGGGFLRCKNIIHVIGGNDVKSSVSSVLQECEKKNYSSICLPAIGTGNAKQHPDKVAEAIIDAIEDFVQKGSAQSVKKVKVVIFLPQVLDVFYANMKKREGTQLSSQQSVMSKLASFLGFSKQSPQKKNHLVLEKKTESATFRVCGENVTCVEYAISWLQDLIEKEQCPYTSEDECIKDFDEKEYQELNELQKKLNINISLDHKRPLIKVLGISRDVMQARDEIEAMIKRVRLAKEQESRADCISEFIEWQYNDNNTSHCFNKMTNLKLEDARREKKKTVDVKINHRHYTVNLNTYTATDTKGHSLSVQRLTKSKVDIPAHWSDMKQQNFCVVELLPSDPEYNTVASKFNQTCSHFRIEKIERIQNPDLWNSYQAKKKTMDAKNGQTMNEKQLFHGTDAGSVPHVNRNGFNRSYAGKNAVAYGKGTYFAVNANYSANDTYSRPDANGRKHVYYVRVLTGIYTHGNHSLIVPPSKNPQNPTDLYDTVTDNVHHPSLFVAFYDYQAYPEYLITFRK

IC50 [1]	remaining at 2 h, 5 µM [2]	remaining at 2 h, 5 µM [3]	solubility thermodynamic at 24 h [4]	SMILES	other results
0.47 µM	–	–	–	NC(=O)c1ccc(Oc2cccc(C(=O)N3CCC(c4ccccc4F)CC3)c2)cc1	–
–	91.8%	16.4%	42 µM (≈ 17.6 µg/mL)	NC(=O)c1ccc(Oc2cccc(C(=O)N3CCC(c4ccc(F)cc4)CC3)c2)cc1	–
0.51 µM	–	–	–	NC(=O)c1ccc(Oc2cccc(C(N)=O)c2)cc1	–
–	–	–	–	NC(=O)c1ccc(Oc2ccc(C(N)=O)cc2)cc1	IC50 [5]: 4.17 µM
1.65 µM	–	–	–	NC(=O)c1ccc(Oc2ccc(C(=O)N3CCC(c4ccc(F)cc4)CC3)cc2)cc1	–
–	88.1%	39%	60 µM (≈ 25.2 µg/mL)	NC(=O)c1ccc(Oc2cccc(C(=O)N3CCN(c4ccc(F)cc4)CC3)c2)cc1	–
1.06 µM	–	–	–	CCOC(=O)C1CCN(C(=O)c2cccc(Oc3ccc(C(N)=O)cc3)c2)CC1	inhibition [6]: 51%
–	100%	45.3%	242 µM (≈ 105 µg/mL)	NC(=O)c1ccc(Oc2cccc(C(=O)N3CCC(O)(c4ccc(F)cc4)CC3)c2)cc1	–
1.5 µM	–	–	–	NC(=O)c1ccc(Oc2cccc(C(=O)N3CCC(O)(c4ccccc4)CC3)c2)cc1	–
1.22 µM	–	–	–	NC(=O)c1ccc(Oc2ccc(C(=O)N3CCC(c4cccc(F)c4)CC3)cc2)cc1	–
